Experimental data as given in patent publication US6008220A, “Aromatic keto-acids and their derivatives as inhibitors of matrix metalloproteinases” (priority 1998, dated 1999).
Where a name gives a salt, the structure may show the parent alone. Read-outs that look alike come from different tables or passages of the source.

Experiments:
[1] = tested on: human ovarian carcinoma xenografts; details: mice bearing human ovarian carcinoma xenografts; cited from earlier work
[2] = target: SCD (stromelysin-1 catalytic domain) (Homo sapiens, UniProt P08254); experiment: Inhibition of stromelysin-1 catalytic domain (SCD), thiopeptolide substrate Ac-Pro-Leu-Gly-thioester-Leu-Leu-Gly-OEt; format: biochemical
SCD (stromelysin-1 catalytic domain), sequence (P08254 100-272 limits assumed): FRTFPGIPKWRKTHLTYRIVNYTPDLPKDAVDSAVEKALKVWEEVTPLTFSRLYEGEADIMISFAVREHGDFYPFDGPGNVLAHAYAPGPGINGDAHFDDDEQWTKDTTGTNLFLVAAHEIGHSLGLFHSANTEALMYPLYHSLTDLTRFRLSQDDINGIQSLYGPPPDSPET
Experimental: Experiments were carried out with the catalytic domains of the proteinases. […] IC50 values were determined using a thiopeptolide substrate, Ac-Pro-Leu-Gly-thioester-Leu-Leu-Gly-OEt (Ye Q.-Z., Johnson L. L., Hupe D. J., and Baragi V., "Purification and Characterization of the Human Stromelysin Catalytic Domain Expressed in Escherichia coli", Biochemistry, 1992;31:11231-11235).

[3] = target: GCD (recombinant gelatinase A catalytic domain); experiment: Inhibition of recombinant gelatinase A catalytic domain (GCD), thiopeptolide substrate Ac-Pro-Leu-Gly-thioester-Leu-Leu-Gly-OEt; format: biochemical
Experimental: Experiments were carried out with the catalytic domains of the proteinases.

[4] = tested on: bovine nasal cartilage; details: cited from earlier work
[5] = tested on: pig articular cartilage; details: cited from earlier work
[6] = tested on: experimental allergic encephalomyelitis (EAE); details: dose dependent; cited from earlier work

IC50 [2] | IC50 [3] | Compound | also measured
– | – | CNC(=O)[C@H](Cc1ccccc1)NC(=O)[C@H](CC(C)C)[C@H](CSc1cccs1)C(=O)NO [BB-94] | survival [1]: prolonged the survival; tumor burden [1]: decreased the tumor burden
2900 nM | 6300 nM | O=C(O)CCC(=NOCc1ccccc1)c1ccc(N2CCC(c3ccccc3)CC2)cc1 [Example 5, E/Z-4-Benzyloxyimino-4-[4-(4-phenyl-piperidin-1-yl)-phenyl]-butyric acid] | –
– | – | TIMP-1: natural endogenous inhibitors of MMPs (TIMPs) | formation of collagen fragments [4]: prevented the formation of collagen fragments; formation of proteoglycan fragments [4]: not proteoglycan fragments; formation of collagen fragments [5]: prevented the formation of collagen fragments; formation of proteoglycan fragments [5]: not proteoglycan fragments
20 nM | 150 nM | O=C(O)CCC(=NO)c1ccc(N2CCC(c3ccccc3)CC2)cc1 [Example 4, E/Z-4-Hydroxyimino-4-[4-(4-phenyl-piperidin-1-yl)-phenyl]-butyric acid] | –
– | – | CNC(=O)[C@H](Cc1c[nH]c2ccccc12)NC(=O)[C@@H](CC(=O)NO)CC(C)C [GM6001] | development or clinical expression of EAE [6]: suppressed the development or reversed the clinical expression
400 nM | 14000 nM | CC(CC(=O)O)CC(=O)c1ccc(N2CCC(c3ccccc3)CC2)cc1 (racemic) [Example 7, (±)3-Methyl-5-oxo-5-[4-(4-phenyl-piperidin-1-yl)-phenyl]-pentanoic acid] | –
– | 1600 nM | O=C(O)CCC(=O)c1ccc(N2CCN(c3ccccc3)CC2)cc1 [Example 6, 4-Oxo-4-[4-(4-phenyl-piperazin-1-yl)-phenyl]-butyric acid] | –
– | 40 nM | O=C(CCC(=O)c1ccc(N2CCC(c3ccccc3)CC2)cc1)NO [Example 3, N-Hydroxy-4-oxo-4-[4-(4-phenyl-piperidin-1-yl)-phenyl]-butyramide] | –

Compound | IC50 [2] | IC50 [3] | also measured
O=C(O)CCC(=O)c1ccc(N2CCC(c3ccccc3)CC2)cc1 [Example 1, 4-Oxo-4-[4-(4-phenyl-piperidin-1-yl)-phenyl]-butyric acid] | – | 1300 nM | –
O=C(O)CCC(=O)c1ccc(N2CCC(c3ccccc3)CC2)cc1 [potassium salt] | 80 nM | – | IC50 ([3]; potassium salt): 560 nM
